Columns and labels:
[1] = LNP characterization of base editor LNP preparations (DLS diameter, PDI, encapsulation efficiency); type: physicochemical; settings: Table E LNPs, formulation ratio 47.5:40:2.5:10, ABE mRNA/PCSK9 sgRNA
Method in brief: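 Lipid mix in ethanol and base-editor mRNA plus modified sgRNA (1:1 by mass, pH 4.0 citrate) were microfluidically mixed at 3:1 aqueous:organic, lipid:NA molar ratio 6, then dialysed against PBS at 4° C for 8–24 h. Diameter and PDI were measured by DLS in PBS; encapsulation was derived from unlysed versus lysed LNPs by Qubit RNA quantitation.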

PCSK9 target site = assay: In vivo base editing with ABE mRNA and sgRNA targeting PCSK9; parameters: species or system Balb/c mice; settings: dose 0.03 MPK (mg total RNA/kg) IV, formulation ratio 47.5:40:2.5:10, liver, 4 days after dosing
Description: Lipid nanoparticle components are dissolved in 100% ethanol at specified lipid component molar ratios. mRNA encoding an adenine base editor and a chemically-modified sgRNA is dissolved at a mass ratio of 1:1 in 10 mM citrate, 100 mM NaCl, pH 4.0, resulting in a concentration of NA cargo of approximately 0.22 mg/mL. LNP preparations are formulated with molar ratios of either 50% Ionizable Lipid: 38.5% Cholesterol: 1.5% PEG2000-DMG: 10% DSPC or 47.5% Ionizable Lipid: 40% Cholesterol: 2.5% PEG2000-DMG: 10% DSPC both at a total lipid to NA molar ratio of 6.
LNP preparations are formed by microfluidic mixing of the lipid and NA solutions using a Precision Nanosystems NanoAssemblr Ignite Instrument, according to the manufacturer's protocol. A 3:1 ratio of aqueous to organic solvent is maintained during mixing using differential flow rates. After mixing, LNP preparations are collected, diluted in PBS (approximately 2:1 v/v), and further buffer exchange is conducted using dialysis in PBS at 4° C. for 8 to 24 hours against a 20 kDa filter. After this initial dialysis, each individual LNP preparation is characterized via dynamic light scattering (DLS) to measure size and polydispersity. pKa of a subpopulation of LNP preparations is measured via TNS assay. After dialysis, LNP preparations are sterile filtered using 0.22 micron sterile filter and stored at 4° C. for further use. In some embodiments, LNP preparations may be concentrated using 100 kDa Amicon filters per manufacturer's protocol.
Male Balb/C mice aged approximately 8-12 weeks are used in the experiments described herein. Each mouse is temporarily restrained, and LNP preparations are administered IV via tail vein injection. Age-matched mice are also used to administer vehicle (1×PBS) via tail vein injection as a control. Four to six days post-dose, tissues including liver, spleen, heart and muscle are collected (only liver and muscle (quardracept) are reported). Genomic DNA is isolated and fragmented and adapter-ligated using the Nextera DNA Flex Library Prep Kit (Illumina) using the 96-well plate Nextera indexing primers (Illumina), according to the manufacturer's instructions. Library size and concentration is confirmed by Fragment Analyzer (Agilent) and sent to Novogene for whole genome sequencing using an Illumina HiSeq.
For base editing, mRNA encoding an adenine base editor (ABE) and a guide RNA (sgRNA) targeting PCSK9 at 1:1 (mass ratio) are coencapsulated in LNP preparations as described herein. LNP preparations are administrated into Balb/c mice through tail vein injections at concentration of 0.03 mg total RNA/kg. […] Base editing is determined by performing targeted deep sequencing analysis at the PCSK9 target site using extracted genomic DNA.

| SMILES | Diameter (nm) [1] [nm] | EE (%) [1] [%] | Liver Editing A->G (%) (PCSK9 target site) | PDI (%) [1] [%] |
| --- | --- | --- | --- | --- |
| CC/C=C\CCCC(CCC/C=C\CC)OC(=O)CCCCCC(=O)OCC(COC(=O)CCCCCC(=O)OC(CCC/C=C\CC)CCC/C=C\CC)COC(=O)NCCCn1ccnc1 [Compound (32), 1-{2-[({[3-(1H-imidazol-1-yl)propyl]carbamoyl}oxy)methyl]-3-({7-oxo-7-[(3Z,12Z)-pentadeca-3,12-dien-8-yloxy]heptanoyl}oxy)propyl} 7-(3Z,12Z)-pentadeca-3,12-dien-8-yl heptanedioate] | 81.94 | 87.5 | 0.06 | – |
| CC/C=C\CCCC(CCC/C=C\CC)OC(=O)CCCCCC(=O)OCC(COC(=O)CCCCCC(=O)OC(CCC/C=C\CC)CCC/C=C\CC)COC(=O)OCCCN(CC)CC [Compound (29), O1-[2-[3-(diethylamino)propoxycarbonyloxymethyl]-3-[7-[(Z)-1-[(Z)-hept-4-enyl]oct-5-enoxy]-7-oxo-heptanoyl]oxy-propyl] O7-[(Z)-1-[(Z)-hept-4-enyl]oct-5-enyl] heptanedioate] | 65.7 | 96.55 | 7.53 | 11.9 |
| CC/C=C\CCCC(CCC/C=C\CC)OC(=O)CCCCCC(=O)OCC(COC(=O)CCCCCC(=O)OC(CCC/C=C\CC)CCC/C=C\CC)COC(=O)OCCCN1CCCC1 [Compound (30), 1-[3-({7-Oxo-7-[(3Z,12Z)-pentadeca-3,12-dien-8-yloxy]heptanoyl}oxy)-2-[({[3-(pyrrolidin-1-yl)propoxy]carbonyl}oxy)methyl]propyl] 7-(3Z,12Z)-pentadeca-3,12-dien-8-yl heptanedioate] | 67.06 | 97.15 | 1.53 | – |
| CC/C=C\CCCC(CCC/C=C\CC)OC(=O)CCCCCC(=O)OCC(COC(=O)CCCCCC(=O)OC(CCC/C=C\CC)CCC/C=C\CC)COC(=O)NCCN1CCN(C)CC1 [Compound (31), 01-[2-[[7-[(Z)-1-[(Z)-hept-4-enyl]oct-5-enoxy]-7-oxo-heptanoyl]oxymethyl]-3-[2-(4-methylpiperazin-1-yl)ethylcarbamoyloxy]propyl] O7-[(Z)-1-[(Z)-hept-4-enyl]oct-5-enyl] heptanedioate] | 103.5 | 93.42 | 0.02 | – |
